Data published in ChEMBL document CHEMBL1201862, “PubChem BioAssay data set” (2004).
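Tested at 5 concentrations; 48 h exposure; 96-well plates; endpoints linearly interpolated, else capped at highest concentration. Abbreviation: GI50, concentration required for 50% inhibition of growth.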 Active and inactive are the calls of the source. Cut-off read from the data, not from the text of the source: active = GI50 up to about 1.1 µM and inactive = higher.

Tests used:
Assay in all cases: NCI-60 cell line screen, 48 h
[1] = tested on: OVCAR-8
[2] = tested on: KM12
[3] = tested on: U-251
[4] = tested on: HT-29
[5] = tested on: MOLT-4
[6] = tested on: M14
[7] = tested on: UO-31
[8] = tested on: SK-OV-3
[9] = tested on: CCRF-CEM
[10] = tested on: A549
[11] = tested on: HCC 2998
[12] = tested on: NCI-H226
[13] = tested on: NCI-H460
[14] = tested on: ACHN

Measured: GI50

C/C(CC(=O)Nc1cccc([N+](=O)[O-])c1)=N\NC(=O)CC#N
inactive: [1] > 100 µM | [2] > 100 µM | [3] > 100 µM | [4] > 100 µM | [5] > 100 µM | [6] > 100 µM | [7] > 100 µM | [8] > 100 µM | [9] > 100 µM | [10] > 100 µM | [11] > 100 µM | [12] > 100 µM

COC1(OC)CC2C(=O)N(Cc3ccccc3)C1C(S(=O)(=O)c1ccccc1)C2C(C)S(=O)(=O)c1ccccc1 (configuration not stated)
inactive: [1] > 100 µM | [2] > 100 µM | [3] > 100 µM | [4] > 100 µM | [5] > 100 µM | [6] > 100 µM | [8] > 100 µM | [13] > 100 µM | [9] > 100 µM | [14] > 100 µM | [10] > 100 µM | [11] > 100 µM

Cc1ccccc1NC(=O)C1C(=O)N(c2ccccc2C)C(=O)/C1=N\NC(N)=S (configuration not stated)
inactive: [2] > 100 µM | [3] > 100 µM | [4] > 100 µM | [5] > 100 µM | [6] > 100 µM | [7] > 100 µM | [8] > 100 µM | [9] > 100 µM | [14] > 100 µM | [10] > 100 µM | [12] > 100 µM

CC(=O)c1c2c(cc3c1CC1(C3)Cc3cc4c(c(C(=O)O)c3C1)CCC4)CCC2 (configuration not stated)
inactive: [1] 41 µM | [2] 44.2 µM | [3] 26.2 µM | [4] 44.5 µM | [5] 25.9 µM | [6] 41.2 µM | [7] 26.9 µM | [13] 32 µM | [9] 27.7 µM | [14] 35.9 µM | [10] 30.8 µM | [11] 37.8 µM

OC12CCC3(O)c4ccccc4C3C1c1ccccc12 (configuration not stated)
inactive: [1] > 100 µM | [2] > 100 µM | [3] > 100 µM | [4] > 100 µM | [5] > 100 µM | [6] > 100 µM | [7] > 100 µM | [8] > 100 µM | [13] > 100 µM | [9] > 100 µM | [14] > 100 µM | [10] > 100 µM | [12] > 100 µM

COc1cccc(OC)c1C(=O)OCc1ccccc1
inactive: [1] > 100 µM | [2] > 100 µM | [3] > 100 µM | [4] > 100 µM | [5] > 100 µM | [6] > 100 µM | [8] > 100 µM | [13] > 100 µM | [9] > 100 µM | [14] > 100 µM | [10] > 100 µM | [12] > 100 µM
